Data taken from patent US20070179295A1, “Triazolopyrimidines” (priority 2003, published 2007).

test: logP determination through HPLC (EEC directive 79/831 Annex V. A8, gradient method, acetonitrile/0.1% aqueous phosphoric acid); type: physicochemical; settings: HPLC

chromatographic logP | Structure (SMILES)
2.38 | Cc1nc2nc(Cl)c(-c3ncccc3C(F)(F)F)c(N[C@@H](C)C(F)(F)F)n2n1 [Example 1, N-{5-chloro-2-methyl-6-[3-(trifluormethyl)-2-pyridinyl][1,2,4]triazolo-[1,5-a]pyrimidin-7-yl}-N-[(1S)-2,2,2-trifluor-1-methylethyl]amine]
1.58 | Cc1nc2nc(Cl)c(-c3ncncc3Cl)c(Cl)n2n1 [Example 115, 5,7-dichloro-6-(5-chloro-4-pyrimidinyl)-2-methyl[1,2,4]-triazolo[1,5-a]pyrimidine]
2.73 | FC(F)(F)c1cccnc1-c1c(Cl)nc2nc(C3CC3)nn2c1Cl [Example 114]

same assay, conditions: HPLC (gradient method); HPLC

chromatographic logP | Structure (SMILES)
2.13 | Cc1nc2nc(Cl)c(-c3ncncc3Cl)c(NC(C)C(F)(F)F)n2n1 [Example 2, N-[5-chloro-6-(5-chloro-4-pyrimidinyl)-2-methyl[1,2,4]triazolo[1,5-a]pyrimidin-7-yl]-N-[(1S)-2,2,2-trifluor-1-methylethyl]amine]

same assay, conditions: Table 1, compounds of formula (I); HPLC gradient method, acetonitrile/0.1% aqueous phosphoric acid

logP | Structure (SMILES)
3.18 | Clc1nc2nc(C3CC3)nn2c(N2CCCC2)c1-c1ccsc1 [Example 65]
2.63 | CC(C)C(C)Nc1c(-c2ccccn2)c(Cl)nc2nc(C3CC3)nn12 (stereo not shown) [Example 27]
3.85 | FC(F)(F)CNc1c(-c2cc(Cl)sc2Cl)c(Cl)nc2nc(C3CC3)nn12 [Example 47]
3.67 | CC(C)c1nc2nc(Cl)c(-c3ncncc3Cl)c(NC(C)C(C)(C)C)n2n1 (stereo not shown) [Example 34]
3.09 | CC(Nc1c(-c2ccccn2)c(Cl)nc2nc(C3CC3)nn12)C(C)(C)C (stereo not shown) [Example 18]
2.21 | Cc1nc2nc(Cl)c(-c3ncncc3F)c(NC(C)C(C)C)n2n1 (stereo not shown) [Example 108]
2.57 | CC(Nc1c(-c2ncncc2F)c(Cl)nc2nc(C3CC3)nn12)C(F)(F)F (stereo not shown) [Example 105]
2.75 | FC1(F)CCN(c2c(-c3ncncc3Cl)c(Cl)nc3nc(C4CC4)nn23)CC1 [Example 41]
4.18 | CC(C)Nc1c(-c2cc(Cl)sc2Cl)c(Cl)nc2nc(C3CC3)nn12 [Example 48]
4.07 | CC1CCCCN1c1c(-c2ccsc2)c(Cl)nc2nc(C3CC3)nn12 (stereo not shown) [Example 95]
2.78 | CC(Nc1c(-c2ccncc2Cl)c(Cl)nc2nc(C3CC3)nn12)C(F)(F)F (stereo not shown) [Example 44]
3.20 | FC1(F)CCN(c2c(-c3ncccc3C(F)(F)F)c(Cl)nc3nc(C4CC4)nn23)CC1 [Example 4]
3.26 | C[C@H](Nc1c(-c2ncc([N+](=O)[O-])cc2Cl)c(Cl)nc2nc(C3CC3)nn12)C(F)(F)F [Example 19]
3.01 | CC(Nc1c(-c2ncccc2C(F)(F)F)c(Cl)nc2nc(C3CC3)nn12)C(F)(F)F (stereo not shown) [Example 7]
3.17 | CC(C)c1nc2nc(Cl)c(-c3ncncc3Cl)c(NC(C)C(C)C)n2n1 (stereo not shown) [Example 36]
2.82 | CC(Nc1c(-c2ncncc2Cl)c(Cl)nc2nc(C3CC3)nn12)C(F)(F)F (stereo not shown) [Example 38]
3.09 | CC(C)C(C)Nc1c(-c2ccncc2Cl)c(Cl)nc2nc(C3CC3)nn12 (stereo not shown) [Example 43]
2.91 | COCCN(C)c1c(-c2ccsc2)c(Cl)nc2nc(C3CC3)nn12 [Example 64]
2.60 | CC(Nc1c(-c2ccccn2)c(Cl)nc2nc(C3CC3)nn12)C(F)(F)F (stereo not shown) [Example 24]
3.26 | CC1CN(c2c(-c3ccsc3)c(Cl)nc3nc(C4CC4)nn23)CC(C)O1 (stereo not shown) [Example 67]
3.81 | C=C(C)CN(C)c1c(-c2ccsc2)c(Cl)nc2nc(C3CC3)nn12 [Example 75]
3.21 | CC(Nc1c(-c2ncccc2[N+](=O)[O-])c(Cl)nc2nc(C3CC3)nn12)C(C)(C)C (stereo not shown) [Example 20]
4.08 | COCCN(C)c1c(-c2cc(Cl)sc2Cl)c(Cl)nc2nc(C3CC3)nn12 [Example 58]

logP | Structure (SMILES)
3.29 | CC(Nc1c(-c2ccsc2)c(Cl)nc2nc(C3CC3)nn12)C(F)(F)F (stereo not shown) [Example 59]
3.85 | CC(C)(C)CNc1c(-c2ccsc2)c(Cl)nc2nc(C3CC3)nn12 [Example 77]
3.02 | CC1CCN(c2c(-c3ncncc3F)c(Cl)nc3nc(C4CC4)nn23)CC1 [Example 106]
2.94 | CC(C)C(C)Nc1c(-c2ncncc2Cl)c(Cl)nc2nc(C3CC3)nn12 (stereo not shown) [Example 15]
4.82 | Clc1cc(-c2c(Cl)nc3nc(C4CC4)nn3c2NC2CCCC2)c(Cl)s1 [Example 70]
2.60 | Cc1nc2nc(Cl)c(-c3ncccc3[N+](=O)[O-])c(NC(C)C(C)(C)C)n2n1 (stereo not shown) [Example 21]
3.23 | CC(C)C(C)Nc1c(-c2scnc2Cl)c(Cl)nc2nc(C3CC3)nn12 (stereo not shown) [Example 92]
2.95 | CC(C)C(C)Nc1c(-c2ncncc2Cl)c(Cl)nc2nc(C3CC3)nn12 (stereo not shown) [Example 37]
2.90 | CC(C)c1nc2nc(Cl)c(-c3ncncc3Cl)c(NC(C)C(F)(F)F)n2n1 (stereo not shown) [Example 29]
5.71 | CCCN(CC1CC1)c1c(-c2cc(Cl)sc2Cl)c(Cl)nc2nc(C3CC3)nn12 [Example 79]
3.09 | Cc1nc2nc(Cl)c(-c3ncccc3C)c(N3CCC(C)CC3)n2n1 [Example 10]
2.82 | CC(C)C(C)Nc1c(-c2ncccc2[N+](=O)[O-])c(Cl)nc2nc(C3CC3)nn12 (stereo not shown) [Example 25]
4.32 | CCCN(CC1CC1)c1c(-c2ccsc2)c(Cl)nc2nc(C3CC3)nn12 [Example 66]
2.65 (Iso- mer) | C[C@H](Nc1c(-c2ncccc2[N+](=O)[O-])c(Cl)nc2nc(C3CC3)nn12)C(F)(F)F (single isomer, unassigned) [Example 17]
2.37 | FC(F)(F)CNc1c(-c2ncncc2Cl)c(Cl)nc2nc(C3CC3)nn12 [Example 30]
3.63 | Clc1nc2nc(C3CC3)nn2c(NC2CCCC2)c1-c1ccsc1 [Example 74]
3.77 | CC1CCN(c2c(-c3ncccc3C(F)(F)F)c(Cl)nc3nc(C4CC4)nn23)CC1 [Example 3]
3.50 | CC(Nc1c(-c2ncncc2Cl)c(Cl)nc2nc(C3CC3)nn12)C(C)(C)C (stereo not shown) [Example 33]
2.94 | CC(Nc1c(-c2scnc2Cl)c(Cl)nc2nc(C3CC3)nn12)C(F)(F)F (stereo not shown) [Example 91]
5.14 | Clc1cc(-c2c(Cl)nc3nc(C4CC4)nn3c2N2CCCCCC2)c(Cl)s1 [Example 85]
2.60 | CC(Nc1c(-c2ccccn2)c(Cl)nc2nc(C3CC3)nn12)C(F)(F)F (stereo not shown) [Example 22]
4.32 | CC(C)c1nc2nc(Cl)c(-c3ncc(C(F)(F)F)cc3Cl)c(NC(C)C(C)C)n2n1 (stereo not shown) [Example 112]
5.03 | CC(C)C(C)Nc1c(-c2cc(Cl)sc2Cl)c(Cl)nc2nc(C3CC3)nn12 (stereo not shown) [Example 53]

logP | Structure (SMILES)
2.03 | Cc1nc2nc(Cl)c(-c3ncncc3F)c(NC(C)C(F)(F)F)n2n1 (stereo not shown) [Example 109]
5.25 | CC(C)CN(C)c1c(-c2cc(Cl)sc2Cl)c(Cl)nc2nc(C3CC3)nn12 [Example 81]
3.41 | FC1(F)CCN(c2c(-c3ccsc3)c(Cl)nc3nc(C4CC4)nn23)CC1 [Example 56]
4.32 | CC(Nc1c(-c2cc(Cl)sc2Cl)c(Cl)nc2nc(C3CC3)nn12)C(F)(F)F (stereo not shown) [Example 46]
2.56 | CC(C)c1nc2nc(Cl)c(-c3ncncc3Cl)c(NCC(F)(F)F)n2n1 [Example 31]
3.86 | CC(Nc1c(-c2nc([N+](=O)[O-])ccc2Cl)c(Cl)nc2nc(C3CC3)nn12)C(C)(C)C (stereo not shown) [Example 28]
2.31 | Cc1nc2nc(Cl)c(-c3ncncc3Cl)c(NC(C)C(C)C)n2n1 (stereo not shown) [Example 9]
3.29 | CC(C)C(C)Nc1c(-c2ncccc2C(F)(F)F)c(Cl)nc2nc(C3CC3)nn12 (stereo not shown) [Example 6]
3.30 | CC1CCN(c2c(-c3ncncc3Cl)c(Cl)nc3nc(C4CC4)nn23)CC1 [Example 94]
2.48 | FC(F)(F)CNc1c(-c2ccncc2Cl)c(Cl)nc2nc(C3CC3)nn12 [Example 40]
4.37 | Clc1cc(-c2c(Cl)nc3nc(C4CC4)nn3c2N2CCCC2)c(Cl)s1 [Example 82]
3.68 | Clc1cc(-c2c(Cl)nc3nc(C4CC4)nn3c2N2CCOCC2)c(Cl)s1 [Example 89]
2.54 | Cc1nc2nc(Cl)c(-c3ncncc3F)c(NC(C)C(C)(C)C)n2n1 (stereo not shown) [Example 107]
3.90 | CC(C)CN(C)c1c(-c2ccsc2)c(Cl)nc2nc(C3CC3)nn12 [Example 63]
5.08 | CC(C)(C)CNc1c(-c2cc(Cl)sc2Cl)c(Cl)nc2nc(C3CC3)nn12 [Example 50]
3.41 | CCC(C)Nc1c(-c2ccsc2)c(Cl)nc2nc(C3CC3)nn12 (stereo not shown) [Example 78]
2.64 | C[C@H](Nc1c(-c2ncccc2[N+](=O)[O-])c(Cl)nc2nc(C3CC3)nn12)C(F)(F)F (single isomer, unassigned) [Example 16]
2.69 | CC(Nc1c(-c2ncncc2Cl)c(Cl)nc2nc(C3CC3)nn12)C(F)(F)F (stereo not shown) [Example 8]
3.39 | CC(Nc1c(-c2ncncc2Cl)c(Cl)nc2nc(C3CC3)nn12)C(C)(C)C (stereo not shown) [Example 35]
3.12 | CC(C)C(C)Nc1c(-c2ncncc2Cl)c(Cl)nc2nc(C3CC3)nn12 (stereo not shown) [Example 32]
3.18 | CC(Nc1c(-c2ncncc2F)c(Cl)nc2nc(C3CC3)nn12)C(C)(C)C (stereo not shown) [Example 103]

Structure (SMILES) | logP
Cc1nc2nc(Cl)c(-c3ncccc3C(F)(F)F)c(NC(C)C(C)(C)C)n2n1 (stereo not shown) [Example 11] | 2.99
Cc1nc2nc(Cl)c(-c3ncccc3C(F)(F)F)c(NC(C)C(C)C)n2n1 (stereo not shown) [Example 12] | 2.68

same assay, conditions: Table 2, precursors of formula (II)

logP | Structure (SMILES)
1.88 | Clc1nc2nc(C3CC3)nn2c(Cl)c1-c1ccccn1 [Example 118]
2.10 | Cc1nc2nc(Cl)c(-c3cncnc3C(F)(F)F)c(Cl)n2n1 [Example 117]
2.23 | Clc1cncnc1-c1c(Cl)nc2nc(C3CC3)nn2c1Cl [Example 116]
1.68 | Cc1nc2nc(Cl)c(-c3ncccc3[N+](=O)[O-])c(Cl)n2n1 [Example 120]

same assay, conditions: Table 3, precursors of formula (IV)

logP | Structure (SMILES)
−0.07 | Oc1nc2nc(C3CC3)nn2c(O)c1-c1ncncc1Cl [Example 127]
−0.03 | Cc1nc2nc(O)c(-c3ncccc3C(F)(F)F)c(O)n2n1 [Example 126]
